Data on six substances can be found in patent US9976141B2, “Compositions and methods for inhibiting gene expression of Hif2alpha” (Arrowhead Madison Inc., priority 2015, dated 2018).

The test system of the data set is human (tumor) Hif2α (EPAS1) mRNA. The data set is described as follows: Hif2α knockdown in orthotopic RCC tumor bearing mice, single injection of RNAi trigger-delivery polymer conjugate, RT-qPCR (Table 7). To be noted: single tail vein injection, relative to isotonic glucose. It is filed as in vivo. A digest of the protocol: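 A single intravenous dose of Hif2α RNAi trigger–delivery polymer conjugate, or isotonic glucose vehicle, was given to nude mice with subcapsular A498-SEAP renal tumours (about 5–6 weeks old). At the indicated time, tumour RNA was assayed by biplex TaqMan qPCR against CycA, and relative expression was calculated by ΔΔCT versus vehicle.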

Where [1] appears, read: RNAi trigger 50 μg, polymer 064 125 μg.

Several values for one entry are separate records, joined by “and”; a condition that tells them apart may be missing. Equal entries are not always repeated.

As to “AD01887 (antisense UCUAGCAACAAAACCUUAATT; sense UUAAGGUUUUGUUGCUAGAT; Hif2alpha RNAi agent antisense strand; modified_base 2,4,6,9,10,13,14,16,18 /mod_base = “2′-deoxy-2′-fluoro corresponding nucleoside”; modified_base 1,3,5,7,8,11,12,15,17,19 /mod_base = “2′-O-methyl corresponding nucleoside”; modified_base 2,3,21 /mod_base = “5′-phosphorothioate corresponding nucleotide”; Hif2alpha RNAi agent sense strand; modified_base 3,5,8,9,13,15,17 /mod_base = “2′-deoxy-2′-fluoro corresponding nucleoside”; modified_base 1,2,4,6,7,10,11,12,14,16,18,19 /mod_base = “2′-O-methyl corresponding nucleoside”; modified_base 20 /mod_base = “3′-3′-linked nucleotide”; modified_base)”, where the note is “RNAi trigger 100 μg, polymer 064 250 μg”, the “Relative Expression day 4 (Hif2α mRNA in kidney tumor)” value is given as 0.329. In the case of “AD01408 (antisense TUUCAUGAAAUCGUUACGUCGGCUAU; sense UAUAUCGACGUAACGAUUUCAUGAAA; Hif2alpha RNAi agent antisense strand; modified_base 25 modified base = “2′-hydroxy corresponding nucleoside”; modified_base 2,4,6,8,10,12,14,16,18,20 /mod_base = “2′-deoxy-2′-fluoro corresponding nucleoside”; modified_base 3,5,7,11,13,15,17,19,21,22,23,24,26 /mod_base = “2′-O-methyl corresponding nucleoside”; modified_base 9 /mod_base = “2′-3′ seco corresponding nucleotide”; modified_base 2,3,23,; Hif2alpha RNAi agent sense strand; modified_base 2,4 modified base = “2′-hydroxy corresponding nucleoside”; modified_base 6,8,10,12,14,16,18,20,22,24,26 /mod_base = “2′-deoxy-2′-fluoro correspondi)”, the “Relative Expression day 4 (Hif2α mRNA in kidney tumor)” value (RNAi trigger 150 μg, polymer 100A 300 μg) amounted to 0.50. As to “AD01296 (antisense TUUCAUGAAAUCGUUACGUUGGCUTT; sense UAUAUCAACGUAACGAUUUCAUGAAA; Hif2alpha RNAi agent antisense strand; modified_base 2,4,6,8,10,14,16,18,20 /mod_base = “2′-deoxy-2′-fluoro corresponding nucleoside”; modified_base 3,5,7,9,11,12,13,15,17,19,21,22,23,24 /mod_base = “2′-O-methyl corresponding nucleoside”; modified_base 2,3,25,26 /mod_base = “5′-phosphorothioate corresponding nucleotide”; Hif2alpha RNAi agent sense strand; modified_base 2,4 modified base = “2′-hydroxy corresponding nucleoside”; modified_base 6,8,10,12,14,15,16,18,20,22,24,26 /mod_base = “2′-deoxy-2′-fluoro corresponding nucleoside”; modified_base 1,3,5,7,9,11,13,17,19,21,23,25 /mod_base = “2′)”, the “Relative Expression day 4 (Hif2α mRNA in kidney tumor)” value (RNAi trigger 80 μg, polymer 126 400 μg) is 0.21.

With “AD02735 (antisense AUUCAUGAAAUCGUUACGUUG; sense ACGUAACGAUUUCAUGAAUT; Hif2alpha RNAi agent antisense strand; modified_base 2,4,6,8,10,14,16,18 /mod_base = “2′-deoxy-2′-fluoro corresponding nucleoside”; modified_base 1,3,5,7,9,11,12,13,15,17,19,20,21 /mod_base = “2′-O-methyl corresponding nucleoside”; modified_base 2,3,20,21 /mod_base = “5′-phosphorothioate corresponding nucleotide”; Hif2alpha RNAi agent sense strand; modified_base 3,5,7,8,9,13,15,17 /mod_base = “2′-deoxy-2′-fluoro corresponding nucleoside”; modified_base 1,2,4,6,10,11,12,14,16,18,19 /mod_base = “2′-O-methyl corresponding nucleoside”; modified_base 20 /mod_base = “3′-3′-linked nucleotide”; modi)”, the “Relative Expression day 4 (Hif2α mRNA in kidney tumor)” value under setting [1] was found to be 0.144. Regarding “AD02692 (antisense UUUCAUGAAAUCGUUACGUUG; sense ACGUAACGAUUUCAUGAAAT; Hif2alpha RNAi agent antisense strand; modified_base 2,4,6,8,10,14,16,18 /mod_base = “2′-deoxy-2′-fluoro corresponding nucleoside”; modified_base 1,3,5,7,9,11,12,13,15,17,19,20,21 /mod_base = “2′-O-methyl corresponding nucleoside”; modified_base 2,3,20,21 /mod_base = “5′-phosphorothioate corresponding nucleotide”; Hif2alpha RNAi agent sense strand; modified_base 3,5,7,8,9,13,15,17 /mod_base = “2′-deoxy-2′-fluoro corresponding nucleoside”; modified_base 1,2,4,6,10,11,12,14,16,18,19 /mod_base = “2′-O-methyl corresponding nucleoside”; modified_base 20 /mod_base = “3′-3′-linked nucleotide”; modi)”, the “Relative Expression day 4 (Hif2α mRNA in kidney tumor)” value is 0.092 under setting [1]; 0.089 and 0.121 (RNAi trigger 75 μg, polymer 064 187.5 μg). With “AD01655 (antisense TUUCAUGAAAUCGUUACGUTT; sense ACGUAACGAUUUCAUGAAAT; Hif2alpha RNAi agent antisense strand; modified_base 2,4,6,8,10,13,14,16,18 /mod_base = “2′-deoxy-2′-fluoro corresponding nucleoside”; modified_base 3,5,7,9,11,12,15,17,19 /mod_base = “2′-O-methyl corresponding nucleoside”; modified_base 2,21 /mod_base = “5′-phosphorothioate corresponding nucleotide”; Hif2alpha RNAi agent sense strand; modified_base 1,3,5,8,9,11,13,15,17,19 /mod_base = “2′-deoxy-2′-fluoro corresponding nucleoside”; modified_base 2,4,6,7,10,12,14,16,18 /mod_base = “2′-O-methyl corresponding nucleoside”; modified_base 20 /mod_base = “3′-3′-linked nucleotide”; modified_base 1 /)”, the “Relative Expression day 4 (Hif2α mRNA in kidney tumor)” value (RNAi trigger 100 μg, polymer 100A 250 μg) is given as 0.234.
